Experimental data: the NIST ThermoML archive (doi:10.1007/s10765-009-0667-2)

Assay: xn = mol fraction of the nth substance listed
Settings: 101 kPa, Liquid; for mass density: Vibrating tube method

c1ccccc1 [benzene] + C1CCCCCCC1
x1 = 1
Settings	mass density [kg/m3]	viscosity [mPa·s]
308.15 K	862.9	0.5272
313.15 K	857.7	0.4942

c1ccccc1 [benzene] + CCCCCCC
Settings	mass density, 308.15 K [kg/m3]	mass density, 313.15 K [kg/m3]	viscosity, 308.15 K [mPa·s]	viscosity, 313.15 K [mPa·s]
x1 = 0.1099	683.6	679.4	0.3518	0.3342
x1 = 0.2052	695.3	691.1	0.3593	0.3356
x1 = 0.2896	706.6	702.4	0.3562	0.3387
x1 = 0.4212	726.5	722.1	0.3632	0.345
x1 = 0.5078	740.9	736.4	0.3724	0.3534
x1 = 0.6087	760	755.4	0.3925	0.3667
x1 = 0.7263	785.5	780.8	0.4094	0.3879
x1 = 0.7936	801.9	797.1	0.4262	0.4031
x1 = 0.8987	830.6	825.6	0.4734	0.4408
x1 = 1	862.9	857.7	0.5272	0.4942

c1ccccc1 [benzene] + CCc1ccccc1
x1 = 1
Settings	mass density [kg/m3]	viscosity [mPa·s]
308.15 K	862.9	0.5272
313.15 K	857.7	0.4942

c1ccccc1 [benzene] + Cc1ccccc1
Settings	mass density, 308.15 K [kg/m3]	mass density, 313.15 K [kg/m3]	viscosity, 308.15 K [mPa·s]	viscosity, 313.15 K [mPa·s]
x1 = 0.0403	853.1	848.6	0.4943	0.468
x1 = 0.1393	853.7	849.1	0.4998	0.4681
x1 = 0.2551	854.5	849.9	0.4968	0.4693
x1 = 0.3116	855	850.3	0.4968	0.469
x1 = 0.3863	855.7	850.9	0.4977	0.4705
x1 = 0.5033	856.6	851.8	0.503	0.4747
x1 = 0.6139	857.8	852.9	0.5078	0.4785
x1 = 0.7301	859.1	854.1	0.5166	0.4813
x1 = 0.8551	860.8	855.7	0.5227	0.487
x1 = 1	862.9	857.7	0.5272	0.4942

C1CCCCCCC1 [cyclooctane] + CCCCCCC
Settings	mass density, 308.15 K [kg/m3]	mass density, 313.15 K [kg/m3]	viscosity, 308.15 K [mPa·s]	viscosity, 313.15 K [mPa·s]
x2 = 0	823.6	819.7	1.803	1.636
x2 = 0.0938	807.7	803.8	1.405	1.288
x2 = 0.1897	793	789.1	1.125	1.044
x2 = 0.2896	777.5	773.6	0.9246	0.8605
x2 = 0.3979	760.8	756.8	0.7613	0.7127
x2 = 0.4949	746.1	742.2	0.6608	0.6207
x2 = 0.5964	730.9	726.9	0.5725	0.5389
x2 = 0.6919	716.7	712.7	0.5028	0.4754
x2 = 0.7795	703.6	699.7	0.4487	0.4256
x2 = 0.8934	686.9	682.8	0.4002	0.3754

C1CCCCCCC1 [cyclooctane] + CCc1ccccc1
Settings	mass density, 308.15 K [kg/m3]	mass density, 313.15 K [kg/m3]	viscosity, 308.15 K [mPa·s]	viscosity, 313.15 K [mPa·s]
x2 = 0	823.6	819.7	1.803	1.636
x2 = 0.0907	824.8	820.9	1.487	1.356
x2 = 0.2033	827.1	823.2	1.206	1.11
x2 = 0.3072	829.5	825.6	1.022	0.9578
x2 = 0.3701	831.2	827.2	0.9433	0.8765
x2 = 0.4761	834.2	830.2	0.8369	0.7835
x2 = 0.5798	837.5	833.4	0.7568	0.7089
x2 = 0.7008	841.7	837.6	0.6736	0.6403
x2 = 0.7922	845.1	840.9	0.6351	0.5979
x2 = 0.8908	849	844.8	0.5958	0.5629

C1CCCCCCC1 [cyclooctane] + Cc1ccccc1
Settings	mass density, 308.15 K [kg/m3]	mass density, 313.15 K [kg/m3]	viscosity, 308.15 K [mPa·s]	viscosity, 313.15 K [mPa·s]
x2 = 0	823.6	819.7	1.803	1.636
x2 = 0.0997	824.6	820.7	1.443	1.326
x2 = 0.1951	826	822.1	1.198	1.112
x2 = 0.3032	828.1	824.1	1.003	0.9333
x2 = 0.3904	830	826	0.8748	0.8203
x2 = 0.4868	832.5	828.5	0.7834	0.701
x2 = 0.5898	835.6	831.4	0.6981	0.6579
x2 = 0.6919	839.2	834.9	0.6266	0.5912
x2 = 0.8003	843.4	839.1	0.5673	0.5364
x2 = 0.888	847.3	842.9	0.5361	0.5033

C1CCCCCCC1 [cyclooctane] + c1ccccc1
Settings	mass density, 308.15 K [kg/m3]	mass density, 313.15 K [kg/m3]	viscosity, 308.15 K [mPa·s]	viscosity, 313.15 K [mPa·s]
x2 = 0	823.6	819.7	1.803	1.636
x2 = 0.1004	824.9	821	1.494	1.368
x2 = 0.1826	826.4	822.4	1.294	1.193
x2 = 0.3035	829	824.9	1.072	0.993
x2 = 0.408	831.9	827.6	0.9222	0.859
x2 = 0.5122	835.2	830.9	0.8085	0.7548
x2 = 0.5243	835.7	831.4	0.7963	0.7437
x2 = 0.6891	842.7	838.1	0.6667	0.6274
x2 = 0.7904	848.1	843.3	0.6042	0.5677
x2 = 0.9001	855.1	850.1	0.5651	0.5263

CCc1ccccc1 [ethylbenzene] + C1CCCCCCC1
x1 = 1
Settings	mass density [kg/m3]	viscosity [mPa·s]
308.15 K	853.7	0.5652
313.15 K	849.5	0.5294

CCc1ccccc1 [ethylbenzene] + CCCCCCC
Settings	mass density, 308.15 K [kg/m3]	mass density, 313.15 K [kg/m3]	viscosity, 308.15 K [mPa·s]	viscosity, 313.15 K [mPa·s]
x2 = 0	853.7	849.5	0.5652	0.5294
x2 = 0.1034	831.5	827.4	0.5217	0.4945
x2 = 0.2048	810.6	806.5	0.4925	0.4631
x2 = 0.2931	793	788.8	0.4625	0.4393
x2 = 0.3754	777.2	773	0.44	0.419
x2 = 0.488	756.3	752.2	0.4195	0.3986
x2 = 0.5929	737.7	733.6	0.4061	0.3807
x2 = 0.6899	720.9	716.7	0.3859	0.3669
x2 = 0.8051	701.8	697.7	0.369	0.3516
x2 = 0.8979	687.1	683	0.3659	0.3425

CCc1ccccc1 [ethylbenzene] + Cc1ccccc1
Settings	mass density, 308.15 K [kg/m3]	mass density, 318.15 K [kg/m3]	viscosity, 308.15 K [mPa·s]	viscosity, 313.15 K [mPa·s]
x2 = 0	853.7	849.5	0.5652	0.5294
x2 = 0.0424	853.7	849.5	0.5587	0.5306
x2 = 0.128	853.7	849.4	0.5587	0.525
x2 = 0.2164	853.6	849.3	0.5471	0.5185
x2 = 0.2928	853.6	849.3	0.5408	0.5124
x2 = 0.393	853.5	849.2	0.5379	0.5186
x2 = 0.4922	853.4	849.1	0.5349	0.5022
x2 = 0.5716	853.4	849	0.5243	0.4968
x2 = 0.7107	853.2	848.8	0.5125	0.4853
x2 = 0.8425	853	848.6	0.5108	0.4781

CCc1ccccc1 [ethylbenzene] + c1ccccc1
Settings	mass density, 308.15 K [kg/m3]	mass density, 313.15 K [kg/m3]	viscosity, 308.15 K [mPa·s]	viscosity, 313.15 K [mPa·s]
x2 = 0	853.7	849.5	0.5652	0.5294
x2 = 0.0877	854.1	849.8	0.5584	0.5282
x2 = 0.1855	854.6	850.2	0.5563	0.5234
x2 = 0.295	855.2	850.8	0.5472	0.5172
x2 = 0.4137	856	851.5	0.5392	0.5096
x2 = 0.498	856.6	852.1	0.5382	0.508
x2 = 0.5965	857.5	852.8	0.5382	0.5039
x2 = 0.7108	858.7	853.9	0.5308	0.4996
x2 = 0.7904	859.7	854.8	0.5263	0.4954
x2 = 0.8983	861.2	856.2	0.5309	0.4949

CCCCCCC [heptane] + C1CCCCCCC1
x1 = 1
Settings	mass density [kg/m3]	viscosity [mPa·s]
308.15 K	671.3	0.3497
313.15 K	667.1	0.3329

CCCCCCC [heptane] + CCc1ccccc1
x1 = 1
Settings	mass density [kg/m3]	viscosity [mPa·s]
308.15 K	671.3	0.3497
313.15 K	667.1	0.3329

CCCCCCC [heptane] + Cc1ccccc1
x1 = 1
Settings	mass density [kg/m3]	viscosity [mPa·s]
308.15 K	671.3	0.3497
313.15 K	667.1	0.3329

CCCCCCC [heptane] + c1ccccc1
x2 = 0
Settings	mass density [kg/m3]	viscosity [mPa·s]
308.15 K	671.3	0.3497
313.15 K	667.1	0.3329

Cc1ccccc1 [toluene] + C1CCCCCCC1
x1 = 1
Settings	mass density [kg/m3]	viscosity [mPa·s]
308.15 K	852.8	0.494
313.15 K	848.3	0.4676

Cc1ccccc1 [toluene] + CCCCCCC
Settings	mass density, 308.15 K [kg/m3]	mass density, 313.15 K [kg/m3]	viscosity, 308.15 K [mPa·s]	viscosity, 313.15 K [mPa·s]
x2 = 0	852.8	848.3	0.494	0.4676
x2 = 0.0901	830.9	826.5	0.4631	0.4392
x2 = 0.1949	807	802.6	0.4406	0.4129
x2 = 0.299	786.6	782.2	0.415	0.3944
x2 = 0.3959	765.9	761.6	0.3967	0.377
x2 = 0.4836	749.6	745.4	0.3861	0.3668
x2 = 0.5809	732.8	728.6	0.3811	0.3562
x2 = 0.6809	716.6	712.5	0.3666	0.3488
x2 = 0.792	699.8	695.6	0.3575	0.341
x2 = 0.8884	686.1	682	0.3605	0.3367

Cc1ccccc1 [toluene] + CCc1ccccc1
x1 = 1
Settings	mass density [kg/m3]	viscosity [mPa·s]
308.15 K	852.8	0.494
313.15 K	–	0.4755
318.15 K	848.3	–
